The text below walks through data of ChEMBL document CHEMBL3400143, “Discovery and hit-to-lead optimization of 2,6-diaminopyrimidine inhibitors of interleukin-1 receptor-associated kinase 4” (Bioorg Med Chem Lett, 2015).

For assay [1], the target named is T1, Interleukin-1 receptor-associated kinase 4 (Homo sapiens, UniProt Q9NWZ3).
T1 sequence (Q9NWZ3 whole entry): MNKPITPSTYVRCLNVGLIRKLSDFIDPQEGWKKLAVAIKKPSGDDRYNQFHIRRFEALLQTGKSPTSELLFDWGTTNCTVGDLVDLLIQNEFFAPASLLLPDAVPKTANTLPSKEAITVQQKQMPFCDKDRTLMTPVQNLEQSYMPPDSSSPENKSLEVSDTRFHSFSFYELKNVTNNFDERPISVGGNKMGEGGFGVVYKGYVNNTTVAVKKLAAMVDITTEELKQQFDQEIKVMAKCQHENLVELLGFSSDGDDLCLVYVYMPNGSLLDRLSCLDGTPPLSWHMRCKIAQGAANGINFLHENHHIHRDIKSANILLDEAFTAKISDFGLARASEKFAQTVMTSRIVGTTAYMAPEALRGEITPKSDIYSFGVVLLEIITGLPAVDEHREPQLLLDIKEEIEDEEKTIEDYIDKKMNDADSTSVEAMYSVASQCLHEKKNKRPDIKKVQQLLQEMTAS
The assay is described as follows: Inhibition of N-terminal GST tagged human recombinant full-length IRAK4 expressed in Sf9 insect cells assessed as reduction in substrate phosphorylation using RP7030 peptide substrate and ATP incubated for 30 mins fluorescence polarization assay.

For assay [2], the target named is Dual specificity protein kinase CLK4 (Homo sapiens) (UniProt Q9HAZ1). Kind of assay: Inhibition of CLK4 (unknown origin).
Sequence of Dual specificity protein kinase CLK4 (Homo sapiens) (Q9HAZ1 whole entry, looked up): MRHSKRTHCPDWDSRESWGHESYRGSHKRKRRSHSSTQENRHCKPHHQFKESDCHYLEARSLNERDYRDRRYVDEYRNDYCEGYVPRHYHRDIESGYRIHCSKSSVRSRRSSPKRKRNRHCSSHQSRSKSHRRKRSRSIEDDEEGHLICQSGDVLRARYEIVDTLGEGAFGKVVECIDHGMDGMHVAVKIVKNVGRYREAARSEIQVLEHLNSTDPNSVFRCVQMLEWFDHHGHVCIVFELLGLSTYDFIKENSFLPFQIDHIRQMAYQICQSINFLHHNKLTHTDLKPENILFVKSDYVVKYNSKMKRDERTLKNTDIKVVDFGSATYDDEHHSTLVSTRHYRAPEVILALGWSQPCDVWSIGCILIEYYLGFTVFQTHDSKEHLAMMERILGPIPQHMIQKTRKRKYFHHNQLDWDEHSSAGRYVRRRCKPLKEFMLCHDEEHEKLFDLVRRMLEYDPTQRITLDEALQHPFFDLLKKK
The target in assay [3] is Receptor-type tyrosine-protein kinase FLT3 (Homo sapiens) (UniProt P36888). The assay is described as follows: Inhibition of FLT3 (unknown origin).
Sequence of Receptor-type tyrosine-protein kinase FLT3 (Homo sapiens) (P36888 whole entry): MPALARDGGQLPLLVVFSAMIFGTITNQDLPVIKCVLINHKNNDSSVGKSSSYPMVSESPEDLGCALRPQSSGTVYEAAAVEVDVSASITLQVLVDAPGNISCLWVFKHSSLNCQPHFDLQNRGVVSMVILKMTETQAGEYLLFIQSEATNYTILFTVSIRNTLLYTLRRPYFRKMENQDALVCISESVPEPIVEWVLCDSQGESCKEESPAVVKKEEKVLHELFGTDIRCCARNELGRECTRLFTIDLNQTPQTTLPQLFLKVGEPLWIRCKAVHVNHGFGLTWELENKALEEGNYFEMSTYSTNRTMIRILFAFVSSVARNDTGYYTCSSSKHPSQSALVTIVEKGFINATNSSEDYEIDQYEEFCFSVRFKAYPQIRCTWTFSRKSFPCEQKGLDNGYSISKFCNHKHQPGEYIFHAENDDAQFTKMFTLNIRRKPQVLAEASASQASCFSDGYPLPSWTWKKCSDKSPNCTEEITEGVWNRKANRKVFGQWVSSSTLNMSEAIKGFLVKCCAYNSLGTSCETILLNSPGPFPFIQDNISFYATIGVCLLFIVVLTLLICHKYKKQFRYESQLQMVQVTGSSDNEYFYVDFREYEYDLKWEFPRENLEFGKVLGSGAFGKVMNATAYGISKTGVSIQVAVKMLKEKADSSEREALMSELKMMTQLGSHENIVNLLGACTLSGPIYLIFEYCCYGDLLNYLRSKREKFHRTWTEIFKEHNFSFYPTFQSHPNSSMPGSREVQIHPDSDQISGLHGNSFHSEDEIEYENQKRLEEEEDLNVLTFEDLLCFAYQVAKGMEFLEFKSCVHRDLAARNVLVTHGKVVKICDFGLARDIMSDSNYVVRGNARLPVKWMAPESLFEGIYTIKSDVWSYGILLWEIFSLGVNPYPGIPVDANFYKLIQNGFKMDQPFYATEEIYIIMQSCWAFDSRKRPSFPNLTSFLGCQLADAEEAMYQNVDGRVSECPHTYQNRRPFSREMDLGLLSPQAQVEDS
The target of assay [4] is Mitogen-activated protein kinase kinase kinase kinase 4 (Homo sapiens) (UniProt O95819). The assay is described as follows: Inhibition of MAP4K4 (unknown origin).
Sequence of Mitogen-activated protein kinase kinase kinase kinase 4 (Homo sapiens) (O95819 2-1239 limits assumed): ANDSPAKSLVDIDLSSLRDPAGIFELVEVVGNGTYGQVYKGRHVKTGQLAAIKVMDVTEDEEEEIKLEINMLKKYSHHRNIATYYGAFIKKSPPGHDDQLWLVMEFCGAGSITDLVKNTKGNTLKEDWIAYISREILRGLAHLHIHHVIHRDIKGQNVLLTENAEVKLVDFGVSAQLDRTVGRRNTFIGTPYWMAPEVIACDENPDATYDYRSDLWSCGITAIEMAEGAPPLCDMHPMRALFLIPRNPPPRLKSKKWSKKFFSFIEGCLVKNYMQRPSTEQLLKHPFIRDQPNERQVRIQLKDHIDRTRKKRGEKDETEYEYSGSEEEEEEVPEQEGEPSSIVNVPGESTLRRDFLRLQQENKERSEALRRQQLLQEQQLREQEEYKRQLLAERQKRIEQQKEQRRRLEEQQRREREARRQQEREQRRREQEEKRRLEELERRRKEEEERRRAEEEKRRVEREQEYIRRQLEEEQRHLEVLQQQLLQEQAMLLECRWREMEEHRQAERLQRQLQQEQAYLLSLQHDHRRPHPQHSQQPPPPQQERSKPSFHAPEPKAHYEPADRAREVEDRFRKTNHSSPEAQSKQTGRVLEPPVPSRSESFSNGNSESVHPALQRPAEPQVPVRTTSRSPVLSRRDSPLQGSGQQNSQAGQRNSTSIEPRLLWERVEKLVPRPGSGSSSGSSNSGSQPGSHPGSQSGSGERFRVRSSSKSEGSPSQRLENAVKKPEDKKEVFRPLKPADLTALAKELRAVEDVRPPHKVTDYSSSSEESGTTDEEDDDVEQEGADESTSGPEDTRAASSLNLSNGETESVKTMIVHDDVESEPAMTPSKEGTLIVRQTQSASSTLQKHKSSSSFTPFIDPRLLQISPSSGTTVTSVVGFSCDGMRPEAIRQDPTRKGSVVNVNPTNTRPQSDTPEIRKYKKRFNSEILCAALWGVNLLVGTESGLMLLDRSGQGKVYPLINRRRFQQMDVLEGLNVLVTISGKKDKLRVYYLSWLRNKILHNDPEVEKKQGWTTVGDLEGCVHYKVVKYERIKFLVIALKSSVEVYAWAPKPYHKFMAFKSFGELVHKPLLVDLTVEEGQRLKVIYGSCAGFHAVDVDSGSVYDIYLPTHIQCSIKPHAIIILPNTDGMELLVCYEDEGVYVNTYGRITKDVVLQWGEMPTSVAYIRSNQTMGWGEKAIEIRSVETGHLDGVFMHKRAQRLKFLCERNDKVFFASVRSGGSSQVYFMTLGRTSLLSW
In assay [5] the target is High affinity nerve growth factor receptor (Homo sapiens) (UniProt P04629). The assay is described as follows: Inhibition of TRKA (unknown origin).
Sequence of High affinity nerve growth factor receptor (Homo sapiens) (P04629 33-796 limits assumed): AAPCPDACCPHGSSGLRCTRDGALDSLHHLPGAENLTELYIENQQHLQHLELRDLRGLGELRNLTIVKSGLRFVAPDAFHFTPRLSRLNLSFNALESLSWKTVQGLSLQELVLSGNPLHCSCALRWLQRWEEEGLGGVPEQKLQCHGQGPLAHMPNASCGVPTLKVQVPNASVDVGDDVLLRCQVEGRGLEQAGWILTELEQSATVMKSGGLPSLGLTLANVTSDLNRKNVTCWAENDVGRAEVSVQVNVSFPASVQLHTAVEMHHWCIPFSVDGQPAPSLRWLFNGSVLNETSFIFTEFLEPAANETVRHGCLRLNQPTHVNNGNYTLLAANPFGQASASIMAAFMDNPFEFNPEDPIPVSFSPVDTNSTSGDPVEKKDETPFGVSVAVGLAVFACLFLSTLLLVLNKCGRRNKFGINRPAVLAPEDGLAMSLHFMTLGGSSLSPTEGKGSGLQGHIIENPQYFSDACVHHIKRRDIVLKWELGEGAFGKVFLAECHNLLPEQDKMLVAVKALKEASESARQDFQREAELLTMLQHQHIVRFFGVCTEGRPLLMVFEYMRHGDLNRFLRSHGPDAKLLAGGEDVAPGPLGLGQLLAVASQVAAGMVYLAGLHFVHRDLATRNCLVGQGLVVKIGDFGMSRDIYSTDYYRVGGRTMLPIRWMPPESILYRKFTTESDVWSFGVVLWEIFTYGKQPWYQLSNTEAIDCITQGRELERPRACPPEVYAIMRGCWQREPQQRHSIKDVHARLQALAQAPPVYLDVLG
The target in assay [6] is BDNF/NT-3 growth factors receptor (Homo sapiens) (UniProt Q16620). Kind of assay: Inhibition of TRKB (unknown origin).
Sequence of BDNF/NT-3 growth factors receptor (Homo sapiens) (Q16620 32-822 limits assumed): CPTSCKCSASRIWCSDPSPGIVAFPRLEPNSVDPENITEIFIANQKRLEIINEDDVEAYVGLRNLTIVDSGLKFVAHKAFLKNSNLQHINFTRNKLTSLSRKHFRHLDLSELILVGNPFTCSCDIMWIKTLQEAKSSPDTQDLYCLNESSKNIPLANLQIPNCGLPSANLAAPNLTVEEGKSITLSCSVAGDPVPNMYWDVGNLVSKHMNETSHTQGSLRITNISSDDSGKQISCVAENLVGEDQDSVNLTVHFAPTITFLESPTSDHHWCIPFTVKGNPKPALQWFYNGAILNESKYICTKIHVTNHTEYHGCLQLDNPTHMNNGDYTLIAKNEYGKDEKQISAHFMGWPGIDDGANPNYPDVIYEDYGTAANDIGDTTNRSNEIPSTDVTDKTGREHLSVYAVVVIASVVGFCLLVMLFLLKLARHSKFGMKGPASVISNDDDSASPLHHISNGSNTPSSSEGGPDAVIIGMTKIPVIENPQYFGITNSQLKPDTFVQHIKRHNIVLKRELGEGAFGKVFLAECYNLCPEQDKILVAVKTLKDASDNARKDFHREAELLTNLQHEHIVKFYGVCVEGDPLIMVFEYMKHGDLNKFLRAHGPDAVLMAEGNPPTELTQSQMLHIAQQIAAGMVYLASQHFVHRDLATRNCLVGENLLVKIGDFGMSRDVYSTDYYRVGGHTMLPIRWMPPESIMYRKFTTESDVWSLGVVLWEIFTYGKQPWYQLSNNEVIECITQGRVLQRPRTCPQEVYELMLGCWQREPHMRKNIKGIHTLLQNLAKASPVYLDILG
Assay [7] has as its target NT-3 growth factor receptor (Homo sapiens) (UniProt Q16288). Kind of assay: Inhibition of TRKC (unknown origin).

pIC50: −log10 of the molar value. The source made the active and inactive calls. No cut-off for these calls is given here.

Sequence of NT-3 growth factor receptor (Homo sapiens) (Q16288 32-839 limits assumed): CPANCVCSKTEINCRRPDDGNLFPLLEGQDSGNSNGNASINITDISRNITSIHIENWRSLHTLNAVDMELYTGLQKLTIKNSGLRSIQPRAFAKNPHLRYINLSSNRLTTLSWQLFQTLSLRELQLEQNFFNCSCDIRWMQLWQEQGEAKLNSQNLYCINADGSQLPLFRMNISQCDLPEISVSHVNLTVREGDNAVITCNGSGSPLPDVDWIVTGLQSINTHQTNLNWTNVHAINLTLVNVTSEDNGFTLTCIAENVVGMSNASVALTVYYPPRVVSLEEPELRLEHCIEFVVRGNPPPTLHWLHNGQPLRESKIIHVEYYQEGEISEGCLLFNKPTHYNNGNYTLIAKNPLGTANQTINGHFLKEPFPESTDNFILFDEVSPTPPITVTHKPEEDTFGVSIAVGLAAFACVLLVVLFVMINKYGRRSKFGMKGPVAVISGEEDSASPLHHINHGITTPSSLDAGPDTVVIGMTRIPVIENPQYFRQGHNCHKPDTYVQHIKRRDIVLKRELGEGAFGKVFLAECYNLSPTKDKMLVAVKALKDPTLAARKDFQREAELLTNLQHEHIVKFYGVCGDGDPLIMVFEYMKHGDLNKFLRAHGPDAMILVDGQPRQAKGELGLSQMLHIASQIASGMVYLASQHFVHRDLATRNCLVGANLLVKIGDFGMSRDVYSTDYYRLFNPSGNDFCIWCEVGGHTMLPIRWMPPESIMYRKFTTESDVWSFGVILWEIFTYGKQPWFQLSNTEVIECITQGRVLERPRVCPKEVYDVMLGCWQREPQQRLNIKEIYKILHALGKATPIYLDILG

With `Nc1ncc(-c2ncc(-c3ccccc3)s2)c(N[C@@H]2C[C@H](CO)[C@@H](O)[C@H]2O)n1`, the pIC50 in assay [1] is less than 4.70. Besides, the inhibition result in assay [2], in assay [3], in assay [4], in assay [5], in assay [6] and in assay [7] was “Active” each time.

As for `Nc1ncc(-c2nc3ccccc3s2)c(N[C@@H]2C[C@H](CO)[C@@H](O)[C@H]2O)n1`, the pIC50 in assay [1] was 6.62. Besides, the inhibition result in assay [2], in assay [3], in assay [4], in assay [5], in assay [6] and in assay [7] was “Active” each time.

With `Nc1ncc(-c2ccccc2)c(N[C@@H]2C[C@H](CO)[C@@H](O)[C@H]2O)n1`, the pIC50 in assay [1] was less than 4.70. Besides, the inhibition entry in assay [2], in assay [3], in assay [4], in assay [5], in assay [6] and in assay [7] was “Active” in each case.

Take `Cc1nc(N)nc(N[C@@H]2C[C@H](CO)[C@@H](O)[C@H]2O)c1-c1nc2ccccc2s1`: the pIC50 in assay [1] was 5.97. Besides, the inhibition entry in assay [2], in assay [3], in assay [4], in assay [5], in assay [6] and in assay [7] was “Active” throughout.

Turning to `OC[C@H]1C[C@@H](Nc2nc(NCC3CC3)ncc2-c2nc3ccccc3s2)[C@H](O)[C@@H]1O`, the pIC50 in assay [1] was 6.48. Moreover, the inhibition result in assay [2], in assay [3], in assay [4], in assay [5], in assay [6] and in assay [7] was “Active” in each case.

For the compound `Cc1nc(NCC2CC2)nc(N[C@@H]2C[C@H](CO)[C@@H](O)[C@H]2O)c1-c1nc2ccccc2s1`, the pIC50 in assay [1] is less than 4.70. The inhibition entry in assay [2], in assay [3], in assay [4], in assay [5], in assay [6] and in assay [7] was “Active” in each case.

`Cc1cc(Nc2ncc(-c3nc4ccccc4s3)c(N[C@@H]3C[C@H](CO)[C@@H](O)[C@H]3O)n2)cc(C)n1`: the pIC50 in assay [1] is 6.00. Moreover, the inhibition entry in assay [2], in assay [3], in assay [4], in assay [5], in assay [6] and in assay [7] was “Active” in each case.

Take `Nc1ncc(-c2ccccn2)c(N[C@@H]2C[C@H](CO)[C@@H](O)[C@H]2O)n1`: in assay [1], the pIC50 is 6.08. For the same compound, the inhibition result in assay [2], in assay [3], in assay [4], in assay [5], in assay [6] and in assay [7] was “Active” throughout.

In the case of `Nc1nc(N[C@@H]2C[C@H](CO)[C@@H](O)[C@H]2O)c(-c2nc3ccccc3s2)c(C2CC2)n1`, the pIC50 in assay [1] is less than 4.70. Moreover, the inhibition entry in assay [2], in assay [3], in assay [4], in assay [5], in assay [6] and in assay [7] was “Active” each time.

Regarding `Nc1nc(Cl)c(-c2nc3ccccc3s2)c(N[C@@H]2C[C@H](CO)[C@@H](O)[C@H]2O)n1`, the pIC50 in assay [1] is 6.77. Moreover, the inhibition result in assay [2], in assay [3], in assay [4], in assay [5], in assay [6] and in assay [7] was “Active” each time.
